Source: patent US20040268437A1, “Method for biosynthesizing the serotonin derivatives in plants” (CHONNAM NATIONAL UNIVERSITY, priority 2003, published 2004)

Experiments:
[1] = test system: Rice plants (Variety: Nakdong); test: Soil treatment of rice with inducers; serotonin derivative content in seeds by HPLC; format: in vivo; details: for Content of serotonin derivatives: Coumaroyl Serotonin / Content of serotonin derivatives: Feruloyl serotonin / Content of serotonin derivatives: Total content: inducer 100 μM to soil, 300,000 L/ha, 20 days; for Rank of inducers by serotonin derivatives produced: in words
Experimental: Rice plants (Variety: Nakdong) having been cultivated in the rice field were treated with inducers for serotonin derivative biosynthesis and then biosynthesis of the serotonin derivatives was investigated.
(§1) Inducers for serotonin derivative biosynthesis were prepared by dissolving tyramine, tryptamine, cinnamic acid, coumaric acid, caffeic acid and ferulic acid (Sigma-Aldrich, Korea) in water respectively to make each concentration 100 μM. And then the soil where rice plants (about 40 days after heading) had been growing was treated once with each inducer for serotonin derivative biosynthesis at the rate of 300,000 L/ha, followed by further cultivation for 20 days.
As a control group, rice plant which had been cultivated under the same conditions except the treatment with inducers for serotonin derivative biosynthesis was used.
After harvesting rice, seeds of the rice were peeled to obtain brown rice. N-(hydroxycinnamoyl)-amines were extracted from 1 g of the brown rice by known method (Ishihara et al., Biosci. Biotechnol. Biochem. 64, 1025-1031, 2000), and then, HPLC was performed.
Coumaroylserotonin and feruloylserotonin included in the extract of seeds of rice, treated with inducers for serotonin derivative biosynthesis, were quantified by HPLC using a standard substance synthesized by a well-known method (Villegas & Brodelius, Physiol. Plant. 78, 414-420, 1990).

[2] = test system: Hot pepper (Variety: Pungcheon); test: Soil treatment of hot pepper with inducers; serotonin derivative content in sarcocarps by HPLC; format: in vivo; details: for Content of serotonin derivatives: Coumaroyl Serotonin / Content of serotonin derivatives: Feruloyl serotonin / Content of serotonin derivatives: Total content: inducer 100 μM to soil, 300,000 L/ha, 20 days; for Rank of inducers by serotonin derivatives produced: in words
Experimental: Hot pepper (Variety: Pungcheon) was treated with inducers for serotonin derivative biosynthesis, followed by an examination of biosynthesis of serotonin derivatives.
as §1, with “Particularly, inducers” for “Inducers”, “acid” for “acid (Sigma-Aldrich, Korea)”
The ripe sarcocarps of hot peppers were obtained to investigate the content of serotonin derivatives by the same method as used in the above Example <1-1>. Control group hot pepper was cultivated under the same condition as the experimental group hot pepper except the treatment with inducers for serotonin derivative biosynthesis.

[3] = test system: transgenic rice plants (T14) over-expressing THT; test: Soil treatment of transgenic rice T14 with inducers; serotonin derivative content in seeds; format: in vivo; details: for Content of serotonin derivative: Coumaroyl serotonin / Content of serotonin derivative: Feruloyl serotonin / Content of serotonin derivative: Total content: seeds of transgenic rice T14, inducer 100 μM to soil, 300,000 L/ha, 20 days
Experimental: Among T2 generations of transgenic rice plants, T14 was transplanted in the soil, to which inducers for serotonin derivative biosynthesis were treated. After cultivation, the contents of serotonin derivatives in seeds of the transgenic rice plants were investigated.
As inducers for serotonin derivative biosynthesis, tyramine, tryptamine, cinnamic acid, coumaric acid, caffeic acid and ferulic acid were used. Precisely, the inducers for serotonin derivative biosynthesis were dissolved in water, making each concentration 100 μM. Then, the solutions were added at the rate of 300,000 L/ha, to the soil where rice plants (about 40 days after heading) were growing. The plants were cultivated for 20 more days.
The seeds of the plants cultivated above were collected, and the content of serotonin derivatives in them was investigated with the same method as used in the Example <1-1>, which was compared with that in seeds of wild type control rice plants.

[4] = test system: potato THT; details: cited from earlier work
[5] = test system: transgenic rice plants over-expressing THT; test: Transgenic rice grown in medium with tyramine or coumaric acid; content in leaves and stems; format: in vivo; details: for Coumaroyl serotonin / Feruloyl serotonin / Total content of serotonin derivatives: medium with 50 μM tyramine, 2 weeks
[6] = test system: wild type control rice plants; test: Wild-type control rice grown in medium with tyramine; content in leaves and stems; format: in vivo; details: Wild-type control (W); medium with 50 μM tyramine, 2 weeks
Experimental: (§2) It was investigated whether serotonin derivatives was biosynthesized in transgenic rice plants over-expressing THT when cultivated in a medium supplemented with serotonin inducers, tyramine or coumaric acid. T2 generations of the transgenic rice seeds were sown on MS medium (Duchefa Biochemie, Netherlands) supplemented with 50 μM of tyramine or coumaric acid, substrates of hot pepper THT enzyme, which were then further cultured in a sterilized condition with 12 hour light and 12 hour dark cycle. 2 weeks later, hydroxycinnamoyl amines were extracted from leaves of T2 generations of transgenic rice plants and wild type control rice plants, respectively, according to the same procedure as used in the above Example <1-1>, then, HPLC was performed for analysis.

[7] = test system: transgenic control rice; test: Transgenic control rice (pGA1611 vector without THT gene) grown in medium with tyramine; content in leaves and stems; format: in vivo; details: Transgenic control (TC); medium with 50 μM tyramine, 2 weeks
Experimental: In the meantime, transgenic control rice was prepared by transfecting rice plant with pGA1611 vector without hot pepper THT gene, and other preparation procedures for a control were the same as for an experimental group.
as §2

[8] = test system: recombinant hot pepper THT; details: amine substrates; cited from earlier work
[9] = Mean of transgenic rice lines T9-T17

O=C(O)/C=C/c1ccc(O)c(O)c1 [Caffeic acid, caffeic acid]
Content of serotonin derivatives: Coumaroyl Serotonin [1]: 20 ng/1 g seed
Content of serotonin derivatives: Feruloyl serotonin [1]: 23 ng/1 g seed
Content of serotonin derivatives: Total content [1]: 43 ng/1 g seed
Content of serotonin derivatives: Coumaroyl Serotonin [2]: 138 ng/1 g sarcocarps
Content of serotonin derivatives: Feruloyl serotonin [2]: 162 ng/1 g sarcocarps
Content of serotonin derivatives: Total content [2]: 300 ng/1 g sarcocarps
Content of serotonin derivative: Coumaroyl serotonin [3]: 368 ng/g seeds
Content of serotonin derivative: Feruloyl serotonin [3]: 430 ng/g seeds
Content of serotonin derivative: Total content [3]: 798 ng/g seeds

O=C(O)C=Cc1ccccc1 [Cinnamic acid, cinnamic acid]
Rank of inducers by serotonin derivatives produced [1]: produced most
Content of serotonin derivatives: Coumaroyl Serotonin [1]: 48 ng/1 g seed
Content of serotonin derivatives: Feruloyl serotonin [1]: 76 ng/1 g seed
Content of serotonin derivatives: Total content [1]: 124 ng/1 g seed
Rank of inducers by serotonin derivatives produced [2]: produced most
Content of serotonin derivatives: Coumaroyl Serotonin [2]: 214 ng/1 g sarcocarps
Content of serotonin derivatives: Feruloyl serotonin [2]: 276 ng/1 g sarcocarps
Content of serotonin derivatives: Total content [2]: 490 ng/1 g sarcocarps
Content of serotonin derivative: Coumaroyl serotonin [3]: 403 ng/g seeds
Content of serotonin derivative: Feruloyl serotonin [3]: 406 ng/g seeds
Content of serotonin derivative: Total content [3]: 809 ng/g seeds

O=C(O)/C=C/c1ccc(O)cc1 [Coumaric acid, coumaric acid]
Content of serotonin derivatives: Coumaroyl Serotonin [1]: 15 ng/1 g seed
Content of serotonin derivatives: Feruloyl serotonin [1]: 21 ng/1 g seed
Content of serotonin derivatives: Total content [1]: 36 ng/1 g seed
Content of serotonin derivatives: Coumaroyl Serotonin [2]: 120 ng/1 g sarcocarps
Content of serotonin derivatives: Feruloyl serotonin [2]: 170 ng/1 g sarcocarps
Content of serotonin derivatives: Total content [2]: 290 ng/1 g sarcocarps
Content of serotonin derivative: Coumaroyl serotonin [3]: 325 ng/g seeds
Content of serotonin derivative: Feruloyl serotonin [3]: 599 ng/g seeds
Content of serotonin derivative: Total content [3]: 924 ng/g seeds

COc1cc(/C=C/C(=O)O)ccc1O [Ferulic acid, ferulic acid]
Rank of inducers by serotonin derivatives produced [1]: third most
Content of serotonin derivatives: Coumaroyl Serotonin [1]: 33 ng/1 g seed
Content of serotonin derivatives: Feruloyl serotonin [1]: 37 ng/1 g seed
Content of serotonin derivatives: Total content [1]: 70 ng/1 g seed
Rank of inducers by serotonin derivatives produced [2]: second most
Content of serotonin derivatives: Coumaroyl Serotonin [2]: 145 ng/1 g sarcocarps
Content of serotonin derivatives: Feruloyl serotonin [2]: 230 ng/1 g sarcocarps
Content of serotonin derivatives: Total content [2]: 375 ng/1 g sarcocarps
Content of serotonin derivative: Coumaroyl serotonin [3]: 313 ng/g seeds
Content of serotonin derivative: Feruloyl serotonin [3]: 537 ng/g seeds
Content of serotonin derivative: Total content [3]: 850 ng/g seeds

NCCc1c[nH]c2ccccc12 [Tryptamine, tryptamine]
Content of serotonin derivatives: Coumaroyl Serotonin [1]: 20 ng/1 g seed
Content of serotonin derivatives: Feruloyl serotonin [1]: 28 ng/1 g seed
Content of serotonin derivatives: Total content [1]: 48 ng/1 g seed
Content of serotonin derivatives: Coumaroyl Serotonin [2]: 61 ng/1 g sarcocarps
Content of serotonin derivatives: Feruloyl serotonin [2]: 79 ng/1 g sarcocarps
Content of serotonin derivatives: Total content [2]: 140 ng/1 g sarcocarps
Content of serotonin derivative: Coumaroyl serotonin [3]: 376 ng/g seeds
Content of serotonin derivative: Feruloyl serotonin [3]: 382 ng/g seeds
Content of serotonin derivative: Total content [3]: 758 ng/g seeds
Use as amine substrate ([4]; potato THT): not used as a substrate

NCCc1ccc(O)cc1 [Tyramine, tyramine]
Rank of inducers by serotonin derivatives produced [1]: second most
Content of serotonin derivatives: Coumaroyl Serotonin [1]: 19 ng/1 g seed
Content of serotonin derivatives: Feruloyl serotonin [1]: 54 ng/1 g seed
Content of serotonin derivatives: Total content [1]: 73 ng/1 g seed
Rank of inducers by serotonin derivatives produced [2]: third most
Content of serotonin derivatives: Coumaroyl Serotonin [2]: 150 ng/1 g sarcocarps
Content of serotonin derivatives: Feruloyl serotonin [2]: 210 ng/1 g sarcocarps
Content of serotonin derivatives: Total content [2]: 360 ng/1 g sarcocarps
Coumaroyl serotonin [5, 9]: 78 μg/g leaves and stems
Feruloyl serotonin [5, 9]: 96 μg/g leaves and stems
Total content of serotonin derivatives [5, 9]: 174 μg/g leaves and stems
Coumaroyl serotonin ([5]; Transgenic rice T9): 24 μg/g leaves and stems
Feruloyl serotonin ([5]; Transgenic rice T9): 24 μg/g leaves and stems
Total content of serotonin derivatives ([5]; Transgenic rice T9): 48 μg/g leaves and stems
Coumaroyl serotonin ([5]; Transgenic rice T10): 86 μg/g leaves and stems
Feruloyl serotonin ([5]; Transgenic rice T10): 114 μg/g leaves and stems
Total content of serotonin derivatives ([5]; Transgenic rice T10): 200 μg/g leaves and stems
Coumaroyl serotonin ([5]; Transgenic rice T13): 224 μg/g leaves and stems
Feruloyl serotonin ([5]; Transgenic rice T13): 200 μg/g leaves and stems
Total content of serotonin derivatives ([5]; Transgenic rice T13): 424 μg/g leaves and stems
Coumaroyl serotonin ([5]; Transgenic rice T14): 46 μg/g leaves and stems
Feruloyl serotonin ([5]; Transgenic rice T14): 78 μg/g leaves and stems
Total content of serotonin derivatives ([5]; Transgenic rice T14): 124 μg/g leaves and stems
Coumaroyl serotonin ([5]; Transgenic rice T16): 50 μg/g leaves and stems
Feruloyl serotonin ([5]; Transgenic rice T16): 70 μg/g leaves and stems
Total content of serotonin derivatives ([5]; Transgenic rice T16): 120 μg/g leaves and stems
Coumaroyl serotonin ([5]; Transgenic rice T17): 36 μg/g leaves and stems
Feruloyl serotonin ([5]; Transgenic rice T17): 92 μg/g leaves and stems
Total content of serotonin derivatives ([5]; Transgenic rice T17): 128 μg/g leaves and stems
Coumaroyltyramine and feruloyltyramine in the extract ([5]; transgenic rice in medium with 50 μM tyramine or coumaric acid, HPLC): neither coumaroyltyramine nor feruloyltyramine
Content of serotonin derivative: Coumaroyl serotonin [3]: 314 ng/g seeds
Content of serotonin derivative: Feruloyl serotonin [3]: 684 ng/g seeds
Content of serotonin derivative: Total content [3]: 998 ng/g seeds
Rank of inducers by content of serotonin derivatives ([3]; seeds of transgenic rice plants, in words): the highest
Coumaroyl serotonin [6]: 0 μg/g leaves and stems
Feruloyl serotonin [6]: 1 μg/g leaves and stems
Total content of serotonin derivatives [6]: 1 μg/g leaves and stems
Coumaroyl serotonin [7]: 0 μg/g leaves and stems
Feruloyl serotonin [7]: 1 μg/g leaves and stems
Total content of serotonin derivatives [7]: 1 μg/g leaves and stems
Increase of substrate specificity to tyramine ([4]; coumaroyl-CoA used as a substrate instead of feruloyl-CoA): more than 10 times
Maximum reaction velocity (Vmax) relative to octopamine [8]: 1.5 fold
